# Source: publication PMC8002452, “Molecular Basis of AmpC β-Lactamase Induction by Avibactam in Pseudomonas aeruginosa: PBP Occupancy, Live Cell Binding Dynamics and Impact on Resistant Clinical Isolates Harboring PDC-X Variants” (International Journal of Molecular Sciences, 2021)
# Experiments:
# [1] = molecular target: PBP5/6 (Pseudomonas aeruginosa, UniProt G3XD74); assay: PBP-binding affinity (IC50), bocillin FL, isolated membranes; parameters: species or system P. aeruginosa PAO1; details: PAO1 membranes 0.5 mg/mL, 30 min, 25 µM bocillin FL; read-out: Mean IC50 ± SD, PBP 5/6 (converted)
# Sequence of PBP5/6 (G3XD74 entry or part of it): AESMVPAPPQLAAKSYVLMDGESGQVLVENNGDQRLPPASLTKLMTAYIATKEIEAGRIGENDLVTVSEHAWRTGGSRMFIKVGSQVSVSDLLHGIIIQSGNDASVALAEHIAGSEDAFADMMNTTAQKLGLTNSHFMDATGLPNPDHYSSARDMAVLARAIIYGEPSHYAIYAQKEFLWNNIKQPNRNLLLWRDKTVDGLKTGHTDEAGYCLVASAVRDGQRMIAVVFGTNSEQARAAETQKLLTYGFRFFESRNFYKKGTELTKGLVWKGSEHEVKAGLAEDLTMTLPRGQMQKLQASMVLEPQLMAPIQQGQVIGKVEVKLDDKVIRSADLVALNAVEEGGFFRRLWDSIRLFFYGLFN
# Procedure: (§1) PBP-binding affinity was determined using previously described methods. Briefly, P. aeruginosa PAO1 cultures grown to the midexponential phase (7.6 log10 CFU/mL) were incubated in CAMHB at 37 °C and 180 rpm, washed and centrifuged (3220× g for 10 min at 4 °C). Bacterial pellets were washed in 30 mL of PBS buffer (pH 7.5), resuspended in 10 mL of PBS and sonicated at 40% amplitude for three 2 min bursts (while immersed in an ice bath) and centrifuged at 3220× g for 15 min at 4 °C. PBP-containing membranes were isolated by ultracentrifugation at 150,000× g for 30 min at 4 °C. Total protein concentrations were measured through the Bradford method.
# (§2) Subsequently, the fluorescent penicillin bocillin FL was added to a 25 μM final concentration. Labeled PBPs were denatured and separated through 4–15% SDS–polyacrylamide gel electrophoresis. Labeled PBPs were visualized using a Typhoon FLA 9500 biomolecular imager (GE Healthcare Bio-Sciences AB, Uppsala, Sweden) (excitation at 488 nm and emission at 530 nm), and binding was determined from at least three independent experiments using ImageQuant TL software v8.1.0.0 (GE Healthcare Bio-Sciences AB, Uppsala, Sweden).
# [2] = molecular target: T1, PBP2 (Pseudomonas aeruginosa, UniProt Q9X6V3); assay: as above; parameters: species or system P. aeruginosa PAO1; details: PAO1 membranes 0.5 mg/mL, 30 min, 25 µM bocillin FL; read-out: Mean IC50 ± SD, PBP 2 (converted)
# T1 construct: PBP-containing membranes were isolated by ultracentrifugation; endogenous in cells; host or cells: P. aeruginosa PAO1 wild type (membrane preparations or intact cells)
# T1 sequence (Q9X6V3 entry or part of it): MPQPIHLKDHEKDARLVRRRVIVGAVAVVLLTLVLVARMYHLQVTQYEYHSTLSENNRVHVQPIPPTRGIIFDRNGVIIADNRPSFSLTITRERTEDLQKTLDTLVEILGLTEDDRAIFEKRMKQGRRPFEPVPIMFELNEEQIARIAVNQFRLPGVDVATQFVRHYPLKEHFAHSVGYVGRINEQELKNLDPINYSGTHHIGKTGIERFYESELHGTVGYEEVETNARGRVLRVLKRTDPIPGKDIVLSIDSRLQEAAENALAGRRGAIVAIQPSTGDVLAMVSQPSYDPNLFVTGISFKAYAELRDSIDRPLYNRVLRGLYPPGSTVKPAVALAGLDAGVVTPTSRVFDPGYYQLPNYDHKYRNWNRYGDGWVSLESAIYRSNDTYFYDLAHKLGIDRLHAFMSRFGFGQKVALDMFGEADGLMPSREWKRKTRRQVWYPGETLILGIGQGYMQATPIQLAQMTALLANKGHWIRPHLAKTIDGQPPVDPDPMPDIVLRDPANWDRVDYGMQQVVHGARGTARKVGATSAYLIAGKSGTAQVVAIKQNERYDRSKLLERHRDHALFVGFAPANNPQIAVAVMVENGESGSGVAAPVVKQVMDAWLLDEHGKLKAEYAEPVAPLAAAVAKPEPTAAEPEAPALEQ
# Procedure: as §1, §2
# [3] = molecular target: T2, PBP1a (Pseudomonas aeruginosa, UniProt Q07806); assay: as above; parameters: species or system P. aeruginosa PAO1; details: PAO1 membranes 0.5 mg/mL, 30 min, 25 µM bocillin FL; read-out: Mean IC50 ± SD, PBP 1a (converted)
# T2 construct: PBP-containing membranes were isolated by ultracentrifugation; endogenous in cells; host or cells: P. aeruginosa PAO1 wild type (membrane preparations or intact cells)
# T2 sequence (Q07806 whole entry): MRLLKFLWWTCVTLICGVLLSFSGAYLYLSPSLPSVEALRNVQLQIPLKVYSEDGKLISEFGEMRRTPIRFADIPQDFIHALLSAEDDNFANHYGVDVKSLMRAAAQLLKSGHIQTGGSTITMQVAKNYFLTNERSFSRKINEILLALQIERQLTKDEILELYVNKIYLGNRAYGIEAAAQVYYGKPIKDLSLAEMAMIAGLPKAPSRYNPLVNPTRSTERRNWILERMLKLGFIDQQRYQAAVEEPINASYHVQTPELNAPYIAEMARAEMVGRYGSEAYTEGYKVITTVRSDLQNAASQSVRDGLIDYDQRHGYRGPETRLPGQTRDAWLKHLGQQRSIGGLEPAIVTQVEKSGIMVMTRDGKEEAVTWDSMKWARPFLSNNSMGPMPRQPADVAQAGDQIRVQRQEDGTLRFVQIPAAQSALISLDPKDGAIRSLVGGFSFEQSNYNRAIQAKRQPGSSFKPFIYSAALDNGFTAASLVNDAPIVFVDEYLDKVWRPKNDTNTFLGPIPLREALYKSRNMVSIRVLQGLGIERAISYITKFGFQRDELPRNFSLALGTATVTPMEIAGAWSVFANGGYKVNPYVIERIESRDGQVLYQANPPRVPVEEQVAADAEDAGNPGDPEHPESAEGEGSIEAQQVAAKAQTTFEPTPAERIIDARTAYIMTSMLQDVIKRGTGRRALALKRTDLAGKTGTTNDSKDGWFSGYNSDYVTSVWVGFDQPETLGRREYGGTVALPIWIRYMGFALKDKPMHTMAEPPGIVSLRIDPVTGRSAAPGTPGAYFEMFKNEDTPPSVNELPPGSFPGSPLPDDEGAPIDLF
# Procedure: as §1, §2
# [4] = system: ampC mRNA in PAΔdacB (PBP4 knockout mutant); assay: qRT-PCR quantification of AmpC induction; format: cell-based, P. aeruginosa; details: 180 min; IPM 8, FOX 64 µg/mL
# Procedure: (§3) Samples were taken at 0, 30 and 180 min. Total RNA was extracted with the RNeasy Mini Kit (Qiagen, Hilden, Germany) and treated with TURBO DNase (Thermo Fisher Scientific, Waltham, MA, USA) to remove contaminating DNA. Samples were afterwards normalized to 50 ng/µL.
# (§4) Normalized samples were then used for one-step reverse transcription and real-time PCR amplification using the QuantiTect SYBR green qRT-PCR kit (Qiagen, Hilden, Germany) in a CFX Connect Real-Time PCR System (Bio-Rad, Hercules, California, USA). Previously described primer pairs ACrnaF/ACrnaR and rpsL-1/rpsL-2 were used for the amplification of ampC and housekeeping gene rpsL, respectively. The mean values of relative mRNA expression (2^−ΔΔCt) obtained from at least two independent biological replicates and duplicate technical replicates were considered.
# [5] = system: ampC mRNA in 103-H8 (AmpC E247K; PDC-221, CAZ/AVI-resistant ST175 clinical isolate); assay: qRT-PCR quantification of AmpC induction; format: cell-based, P. aeruginosa; details: IPM 8, FOX 64, AVI 16 µg/mL, relative to strain basal t=0
# Procedure: as §3, §4
# [6] = system: ampC mRNA in wild-type PAO1; assay: qRT-PCR quantification of AmpC induction; format: cell-based, P. aeruginosa; details: IPM 8, FOX 64, AVI 16 µg/mL, relative to strain basal t=0
# Procedure: as §3, §4
# [7] = system: ampC mRNA in 101-E5 (CAZ/AVI-sensitive ST175 clinical isolate); assay: qRT-PCR quantification of AmpC induction; format: cell-based, P. aeruginosa; details: IPM 8, FOX 64, AVI 16 µg/mL, relative to strain basal t=0
# Procedure: as §3, §4
# [8] = system: ampC mRNA in 110-G8 (AmpC DelG229–E247; PDC-223, CAZ/AVI-resistant ST175 clinical isolate); assay: qRT-PCR quantification of AmpC induction; format: cell-based, P. aeruginosa; details: IPM 8, FOX 64, AVI 16 µg/mL, relative to strain basal t=0
# Procedure: as §3, §4
# [9] = system: ampC mRNA in 109-E9 (CAZ/AVI-sensitive ST175 clinical isolate); assay: qRT-PCR quantification of AmpC induction; format: cell-based, P. aeruginosa; details: IPM 8, FOX 64, AVI 16 µg/mL, relative to strain basal t=0
# Procedure: as §3, §4
# [10] = molecular target: PBP1b (Pseudomonas aeruginosa, UniProt G3XD31); assay: PBP-binding affinity (IC50), bocillin FL, isolated membranes; parameters: species or system P. aeruginosa PAO1; details: PAO1 membranes 0.5 mg/mL, 30 min, 25 µM bocillin FL
# Sequence of PBP1b (G3XD31 entry or part of it): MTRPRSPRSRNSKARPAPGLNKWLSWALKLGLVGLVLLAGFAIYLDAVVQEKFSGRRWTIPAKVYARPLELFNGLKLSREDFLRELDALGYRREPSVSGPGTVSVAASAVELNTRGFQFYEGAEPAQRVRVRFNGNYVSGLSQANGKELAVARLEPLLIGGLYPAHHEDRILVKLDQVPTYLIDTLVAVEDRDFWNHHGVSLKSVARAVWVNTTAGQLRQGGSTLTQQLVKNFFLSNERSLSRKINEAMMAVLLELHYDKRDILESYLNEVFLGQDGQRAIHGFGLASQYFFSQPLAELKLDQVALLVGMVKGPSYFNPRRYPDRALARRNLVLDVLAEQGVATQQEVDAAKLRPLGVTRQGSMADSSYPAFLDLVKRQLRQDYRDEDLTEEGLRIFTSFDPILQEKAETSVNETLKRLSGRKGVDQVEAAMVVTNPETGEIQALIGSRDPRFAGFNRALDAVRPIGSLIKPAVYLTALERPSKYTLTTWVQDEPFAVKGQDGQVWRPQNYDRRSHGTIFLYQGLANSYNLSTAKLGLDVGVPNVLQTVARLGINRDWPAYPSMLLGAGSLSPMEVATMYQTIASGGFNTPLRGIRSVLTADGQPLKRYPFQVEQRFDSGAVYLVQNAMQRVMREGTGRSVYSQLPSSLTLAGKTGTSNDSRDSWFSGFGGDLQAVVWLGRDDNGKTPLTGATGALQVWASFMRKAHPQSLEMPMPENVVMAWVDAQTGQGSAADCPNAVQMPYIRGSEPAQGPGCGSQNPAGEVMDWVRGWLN
# Procedure: as §1, §2
# [11] = molecular target: PBP4 (Pseudomonas aeruginosa, UniProt Q9HZG1); assay: as above; parameters: species or system P. aeruginosa PAO1; details: PAO1 membranes 0.5 mg/mL, 30 min, 25 µM bocillin FL; read-out: Mean IC50 ± SD, PBP 4 (converted)
# Sequence of PBP4 (Q9HZG1 entry or part of it): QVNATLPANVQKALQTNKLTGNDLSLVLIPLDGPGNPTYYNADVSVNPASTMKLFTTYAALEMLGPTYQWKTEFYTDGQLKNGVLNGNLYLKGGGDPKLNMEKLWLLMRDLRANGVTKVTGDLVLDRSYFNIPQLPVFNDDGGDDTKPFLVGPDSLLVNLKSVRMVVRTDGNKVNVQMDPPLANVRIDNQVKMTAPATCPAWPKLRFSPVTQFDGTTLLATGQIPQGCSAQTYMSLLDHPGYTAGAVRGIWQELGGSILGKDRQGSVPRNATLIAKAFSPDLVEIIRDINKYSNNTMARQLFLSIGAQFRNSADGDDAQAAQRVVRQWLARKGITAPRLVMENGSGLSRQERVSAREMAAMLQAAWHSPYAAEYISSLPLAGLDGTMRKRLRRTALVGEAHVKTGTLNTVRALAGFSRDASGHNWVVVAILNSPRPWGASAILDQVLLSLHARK
# Procedure: as §1, §2
# [12] = molecular target: T3, PBP3 (Pseudomonas aeruginosa, UniProt G3XD46); assay: biochemical; format: binding, P. aeruginosa PAO1; details: PAO1 membranes 0.5 mg/mL, 30 min, 25 µM bocillin FL; read-out: Mean IC50 ± SD, PBP 3 (converted)
# T3 construct: PBP-containing membranes were isolated by ultracentrifugation; endogenous in cells; host or cells: P. aeruginosa PAO1 wild type (membrane preparations or intact cells)
# T3 sequence (G3XD46 whole entry): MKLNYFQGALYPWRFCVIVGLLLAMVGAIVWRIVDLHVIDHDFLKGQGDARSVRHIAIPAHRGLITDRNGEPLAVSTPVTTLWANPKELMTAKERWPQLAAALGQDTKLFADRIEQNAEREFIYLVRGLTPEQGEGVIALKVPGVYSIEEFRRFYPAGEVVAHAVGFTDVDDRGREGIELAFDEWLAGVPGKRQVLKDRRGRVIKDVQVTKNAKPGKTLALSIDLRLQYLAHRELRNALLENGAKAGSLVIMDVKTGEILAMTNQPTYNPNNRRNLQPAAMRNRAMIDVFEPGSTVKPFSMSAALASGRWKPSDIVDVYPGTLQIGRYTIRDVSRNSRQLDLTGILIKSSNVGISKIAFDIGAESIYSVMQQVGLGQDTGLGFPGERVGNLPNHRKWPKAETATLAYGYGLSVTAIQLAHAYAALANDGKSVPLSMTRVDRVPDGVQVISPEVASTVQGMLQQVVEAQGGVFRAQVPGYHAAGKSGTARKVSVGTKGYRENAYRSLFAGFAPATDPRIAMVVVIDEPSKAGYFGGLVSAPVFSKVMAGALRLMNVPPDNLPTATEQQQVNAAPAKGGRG
# Procedure: as §1, §2
smiles,measurement,setting,value
C[C@@H](O)[C@H]1C(=O)N2C(C(=O)O)=C(SCCN=CN)C[C@H]12 [Imipenem],IC50,[1],1.67 µM
same,IC50,[2],< 0.835 µM
same,IC50,[3],< 0.835 µM
CO[C@@]1(NC(=O)Cc2cccs2)C(=O)N2C(C(=O)O)=C(COC(N)=O)CS[C@@H]21 [Cefoxitin],"ampC inducibility of PBP4 (dacB) mutant, fold lower than parental strain PAO1",[4],32 fold
same,Relative ampC expression,"[5]; 103-H8, 0 min",1.4
same,Relative ampC expression,"[5]; 103-H8, 30 min",14.0
same,Relative ampC expression,"[5]; 103-H8, 180 min",50 ± 36.5
same,Relative ampC expression,"[5]; 103-H8, 180 min, listed as FOX",50.0
same,Relative ampC expression,"[6]; PAO1, 0 min",0.9
same,Relative ampC expression,"[6]; PAO1, 30 min",3100
same,Relative ampC expression,"[6]; PAO1, 180 min",2500
same,Relative ampC expression,"[7]; 101-E5, 0 min",3.7
same,Relative ampC expression,"[7]; 101-E5, 30 min",1.7
same,Relative ampC expression,"[7]; 101-E5, 180 min",5.7 ± 2.8
same,Relative ampC expression,"[7]; 101-E5, 180 min, listed as FOX",5.7
same,Relative ampC expression,"[8]; 110-G8, 0 min",3.3
same,Relative ampC expression,"[8]; 110-G8, 30 min",51.8 ± 13.2
same,Relative ampC expression,"[8]; 110-G8, 30 min, listed as FOX",51.8
same,Relative ampC expression,"[8]; 110-G8, 180 min",29.2 ± 13.1
same,Relative ampC expression,"[8]; 110-G8, 180 min, listed as FOX",29.2
same,Relative ampC expression,"[9]; 109-E9, 0 min",0.9
same,Relative ampC expression,"[9]; 109-E9, 30 min",4.1
same,Relative ampC expression,"[9]; 109-E9, 180 min",8.8 ± 7.9
same,Relative ampC expression,"[9]; 109-E9, 180 min, listed as FOX",8.8
same,IC50,[1],21.1 µM
same,"Mean IC50 ± SD, PBP 1b",[10],no PBP1b binding was detected
same,IC50,"[10]; read-out: Mean IC50 ± SD, PBP 1b (converted)",> 74.9 µM
same,IC50,[2],34.2 µM
same,IC50,[3],18.2 µM
same,IC50,[11],3.51 µM
same,IC50,[12],25 µM
